{
  "source": "patent US8895623B2",
  "about": "(priority 2011, dated 2014)",
  "key": {"[1]": {"system": "thrombocytes", "assay": "conjugation in thrombocytes in presence of biogenic amine transport inhibitors"}, "[2]": {"assay": "loss of compound on incubation in heparinised whole human blood", "format": "in vitro ADME", "conditions": "for loss of added compound: whole human blood", "from_the_text": "The remaining possibility was that the high clearance was due to a stereo-selective biochemical process occurring in blood itself. If true, then it would be expected that 3-[(1S,2S)-3-(dimethylamino)-1-ethyl-2-methylpropyl]phenol, but not 3-[(1R,2R)-3-(dimethylamino)-1-ethyl-2-methylpropyl]phenol, would be metabolised in a time-, concentration-, and temperature-dependent manner by whole human blood.\nTo test the hypothesis, blood was withdrawn from healthy volunteers, heparinised (final heparin concentration, 15 U/ml), and spiked with 1 μM 3-[(1S,2S)-3-(dimethylamino)-1-ethyl-2-methylpropyl]phenol or 3-[(1R,2R)-3-(dimethylamino)-1-ethyl-2-methylpropyl]phenol. It was mixed on a rotary mixer at 37° C. in closed test-tubes. The rate of loss of the added compounds was determined by taking aliquots at regular intervals, centrifuging at 5000 g for 5 minutes, and analysing the supernatant.\nSupernatants were alkalinized by addition of aqueous 25% ammonia (50 μl/ml plasma), spiked with an internal standard, and extracted twice with tertiary butyl methyl ether (2 ml per ml plasma). The ether layers were combined and dried in a stream of nitrogen before being reconstituted in 150 μl chromatography buffer (see below).\nAll assay supernatants were analysed by reversed-phase HPLC on a Inertsil 5 ODS 2 column (250×4.6 mm). The HPLC system consisted of equipment from Dionex or Gynkotek. The auto-sampler was a GINA 50T unit (Gynkotek); the pump system was type P580A LPG (Gynkotek); the column was thermostatted at 30° C. using a SHT 585 unit (Gynkotek). Effluents were generally monitored for fluorescence emission at 300 nm after excitation at 215 nm using a RF 2000 detector (Dionex); the wavelengths for excitation and emission were chosen to be optimal for 3-[(1S,2S)-3-(dimethylamino)-1-ethyl-2-methylpropyl]phenol or 3-[(1R,2R)-3-(dimethylamino)-1-ethyl-2-methylpropyl]-phenol. Chromatograms were evaluated using Chromeleon software version 6.11 (Dionex).\nGenerally, the samples were eluted using an isocratic solvent mixture. Sodium pentane-sulphonate was dissolved at 1.92 g/l (10 mM)=PSS; perchloric acid (PA) was 60% w/v. A mixture containing 900 ml PSS, 210 ml methanol, 80 ml tetrahydrofuran, and 0.1 ml PA was made, allowed to stand overnight, and degassed prior to passage over the column. The effluent was passed first through the UV detector, and then into the fluorescence detector."}, "[3]": {"system": "thrombocytes", "assay": "incubation in thrombocyte-enriched plasma (sulphation by thrombocytes)", "format": "in vitro ADME, human", "description": "Thrombocyte (platelet-)enriched plasma can be prepared by centrifuging blood at 400 g for 10 minutes as this precipitates larger cells (erythrocytes, leukocytes)."}, "[4]": {"assay": "oral bioavailability in humans", "format": "in vivo", "from_the_text": "The principal route of metabolic clearance of 3-[(1R,2R)-3-(dimethylamino)-1-ethyl-2-methylpropyl]phenol in most species, including humans, is glucuronidation, and this route was therefore considered to be very likely to be dominant for 3-[(1S,2S)-3-(dimethylamino)-1-ethyl-2-methylpropyl]phenol as well."}, "[5]": {"assay": "stability to plasma", "format": "in vitro ADME", "from_the_text": "Blood consists of plasma, plasma enzymes, and various blood cell types (erythrocytes, leukocytes, thrombocytes etc). 3-[(1S,2S)-3-(dimethylamino)-1-ethyl-2-methylpropyl]phenol was expected, and proven, to be stable to plasma. Of the blood cell types, thrombocytes (platelets) were expected to have the highest relevant enzymatic activity in SULT1A3, a sulphotransferase."}, "[6]": {"assay": "pharmacokinetics after intravenous administration in humans", "format": "in vivo", "conditions": "for initial plasma concentrations: after intravenous administrations of equal doses, comparison of enantiomers; for elimination halftime: in humans, intravenous administration", "description": "On examination of the pharmacokinetics of the two compounds after intravenous administration, it became clear that the rate of elimination of 3-[(1S,2S)-3-(dimethylamino)-1-ethyl-2-methylpropyl]phenol was much higher than that of 3-[(1R,2R)-3-(dimethylamino)-1-ethyl-2-methylpropyl]phenol, and higher even than could be explained on clearance of the total hepatic blood flow. […] In fact, the elimination halftime of 3-[(1S,2S)-3-(dimethylamino)-1-ethyl-2-methylpropyl]phenol was ca. 0.75 h."}, "[7]": {"system": "male Sprague Dawley rats", "assay": "low intensity tail-flick test after intrathecal administration", "format": "in vivo, rat", "conditions": "intrathecal (i.t.) 3.15 μg/animal, 20 min p. appl., mean±s.e.m., n=10", "description": "Antinociceptive effects of 3-[(1S,2S)-3-(dimethylamino)-1-ethyl-2-methylpropyl]-phenol were evaluated in the low intensity tail-flick test after local drug application into the spinal cord of rats.\n160 male Sprague Dawley rats (200 to 260 g body weight) from a commercial breeder (Janvier, Le Genest St Isle, France) were housed under standardized conditions: light/dark rhythm (06.00-18.00 h light, 18.00-06.00 h dark); room temperature 20-24° C.; relative air humidity 35-70%; 15 air changes per hour, air movement <0.2 m/sec. The animals were given water and feedstuff designed for rats/mice/hamsters from Nohrlin (Bad Salzuflen, FRG) ad libitum. They were kept in groups of six in Makrolon cages type 4. There were at least 5 days between the day of delivery and the day of testing.\nThe experiments were performed using a Tail-flick device from Rhema-Labortechnik (Hofheim/Ts., FRG). Before and after drug application, a radiant heat beam was focused onto the dorsal surface of the rat's tail about 2 to 4 cm apart from the root. […] The latency from switching on the lamp to tail withdrawal was measured. […]\nThe individual latencies were calculated as the percentage of the Maximum Possible Effect (% MPE) according to the following formula: % MPE=(latency−VTM)/(30sec−VTM)*100% VTM: mean pre-test value, 30 sec: cut off value.\nData were expressed as mean±s.e.m. of the respective animal group."}, "[8]": {"assay": "rate of microsomal oxidation in vitro", "format": "in vitro ADME", "conditions": "hepatic microsomes", "from_the_text": "The probability of different routes of metabolic clearance in vivo can be investigated by estimating the rates of the underlying oxidation or conjugation reactions in vitro using sub-cellular fractions such as hepatic microsomes. Because the rate of microsomal oxidation of 3-[(1S,2S)-3-(dimethylamino)-1-ethyl-2-methylpropyl]phenol could be shown to be very low, it was considered that oxidative metabolism was unlikely to be a significant metabolic clearance route for this molecule."}, "[9]": {"conditions": "in humans, known value; cited from earlier work"}},
  "note": "Like-named read-outs stand apart in the source and are kept apart here.",
  "data": [
    {"smiles": "CC[C@H](c1cccc(OS(=O)(=O)O)c1)[C@H](C)CN(C)C", "note": "[3-[(1S,2S)-3-(dimethylamino)-1-ethyl-2-methylpropyl]phenol-sulphate]", "values": [
      {"measurement": "accumulation in pelleted thrombocytes", "setting": "[1]; under any condition", "result": "no accumulation"}
    ]},
    {"smiles": "CC[C@H](c1cccc(O)c1)[C@H](C)CN(C)C", "note": "[3-[(1S,2S)-3-(dimethylamino)-1-ethyl-2-methylpropyl]phenol]", "values": [
      {"measurement": "concentration above which clearance process is saturable", "setting": "[2]; whole blood, net losses sub-linear", "result": "above 2 μM"},
      {"measurement": "loss of added compound", "setting": "[2]; 1 μM, 37° C., over one hour", "result": 35, "unit": "%"},
      {"measurement": "loss of added compound", "setting": "[2]; 6° C.", "result": "no loss"},
      {"measurement": "loss of added compound", "setting": "[2]; room temperature (24° C.)", "result": 7, "unit": "%"},
      {"measurement": "rate of conjugation in presence of transport inhibitors", "setting": "[1]; cocaine 10 μM, nomifensin 10 μM, amphetamine 100 μM, fluoxetine 10 μM, desipramine 100 μM", "result": "influenced neither"},
      {"measurement": "Km", "setting": "[3]; estimated from concentration dependency of the reaction rate, read-out: Km of the process", "result": 3.5, "unit": "µM"},
      {"measurement": "loss on incubation in thrombocyte-enriched plasma", "setting": "[3]; thrombocyte-enriched plasma from a given volume of blood, compared with whole blood", "result": "equivalent to that observed on incubation in the original volume of whole blood"},
      {"measurement": "oral bioavailability", "setting": "[4]", "result": "effectively zero"},
      {"measurement": "oral bioavailability or intravenous bioavailability", "setting": "[4]", "result": "no relevant oral bioavailability or intravenous bioavailability"},
      {"measurement": "stability to plasma", "setting": "[5]", "result": "stable"},
      {"measurement": "initial plasma concentrations", "setting": "[6]", "result": "essentially identical"},
      {"measurement": "clearance relative to hepatic blood flow", "setting": "[6]; humans, explains short elimination halftime", "result": "5 fold the hepatic blood flow"},
      {"measurement": "elimination halftime", "setting": "[6]", "result": "ca. 0.75 h"},
      {"measurement": "maximum antinociceptive effect", "setting": "[7]", "result": "59.71±2.94", "unit": "% MPE"},
      {"measurement": "rate of microsomal oxidation", "setting": "[8]", "result": "very low"}
    ]},
    {"smiles": "CC[C@H](c1ccc[14c](O)c1)[C@H](C)CN(C)C", "note": "[14C-3-[(1S,2S)-3-(dimethylamino)-1-ethyl-2-methylpropyl]phenol]", "values": [
      {"measurement": "reaction products after incubation", "setting": "[3]; whole blood or thrombocyte-enriched plasma, eluted identically to synthetic sulphate on HPLC", "result": "only a single reaction product"}
    ]},
    {"smiles": "CC[C@@H](c1cccc(O)c1)[C@@H](C)CN(C)C", "note": "[(-)-(1R,2R)-3-(3-dimethylamino-1-ethyl-2-methyl-propyl)-phenol, reference compound]", "values": [
      {"measurement": "loss of added compound", "setting": "[2]; 1 μM, 37° C., over one hour", "result": "No loss"},
      {"measurement": "oral bioavailability", "setting": "[9]", "result": "ca. 33%"},
      {"measurement": "initial plasma concentrations", "setting": "[6]", "result": "essentially identical"},
      {"measurement": "elimination halftime", "setting": "[6]", "result": "ca. 3.2 h"},
      {"measurement": "rate of microsomal oxidation", "setting": "[8]", "result": "similarly low"}
    ]}
  ]
}
